Active and inactive are the calls of the source. The calls are words filed in the database; no cut-off is given here.
Key:
Format in all cases: functional
[1] = molecular target: T1, Muscarinic acetylcholine receptor M1 (Rattus norvegicus) (UniProt P08482); test: Muscarinic M1 receptor ganglion-stimulating activity as pressor responses in pithed rats; Inactive
T1 sequence (whole entry): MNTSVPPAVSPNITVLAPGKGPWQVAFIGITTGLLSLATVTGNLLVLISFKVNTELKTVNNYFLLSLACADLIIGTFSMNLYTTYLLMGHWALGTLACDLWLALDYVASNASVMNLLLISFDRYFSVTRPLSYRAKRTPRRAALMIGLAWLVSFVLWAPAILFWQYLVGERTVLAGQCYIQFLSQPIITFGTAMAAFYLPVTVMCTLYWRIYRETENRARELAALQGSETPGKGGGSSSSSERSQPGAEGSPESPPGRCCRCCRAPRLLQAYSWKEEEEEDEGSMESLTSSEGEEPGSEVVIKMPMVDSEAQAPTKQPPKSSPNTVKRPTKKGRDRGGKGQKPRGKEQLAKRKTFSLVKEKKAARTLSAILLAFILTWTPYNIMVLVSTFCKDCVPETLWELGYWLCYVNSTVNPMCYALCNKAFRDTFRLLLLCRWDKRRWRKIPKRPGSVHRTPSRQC

Rattus norvegicus [2] = species on record: Rattus norvegicus; test: Compound was tested for the production of depressor effects in rat
Rattus norvegicus [3] = species on record: Rattus norvegicus; test: Compound was tested for the production of […] sensitive pressor response; Range 20-30 mmHg
Rattus norvegicus [4] = species on record: Rattus norvegicus; test: Compound was tested for the production of piperizine sensitive pressor response

Row | Structure (SMILES) | Activity [1] | Activity (Rattus norvegicus [2]) [µM/kg] | Mean arterial blood pressure (Rattus norvegicus [3]) [mmHg] | Activity (Rattus norvegicus [4]) [µM/kg]
1 | CN1CCC=C(COC(=O)Nc2ccccc2Cl)C1 | inactive | >2 |  | 
2 | C[N+]1(C)CC=C(COC(=O)Nc2cccc(Cl)c2)C1 |  | 3 |  | 
3 | C[N+]1(C)CCC=C(COC(=O)Nc2ccc(Cl)cc2)C1.[I-] |  | 0.1 |  | 
4 | CN1CC=C(COC(=O)Nc2cccc(Cl)c2)C1 |  |  | 20 | 
5 | C[N+]1(C)CC=C(COC(=O)Nc2ccc(Cl)cc2)CC1.[Br-] |  |  |  | 0.1
6 | CN1CC=C(COC(=O)Nc2ccc(Cl)cc2)CC1 | inactive | >2 |  | 
7 | CN1CCC(COC(=O)Nc2cccc(Cl)c2)CC1 |  | 0.1 |  | 
8 | C[N+]1(C)CCC=C(COC(=O)Nc2cccc(Cl)c2)C1.[I-] | inactive | >2 |  | 
9 | C[N+]1(C)CCC(COC(=O)Nc2cccc(Cl)c2)CC1 |  |  | 20 | 

Continued, in another order:

Row | Activity [1] | Structure (SMILES) | Activity (Rattus norvegicus [2]) [µM/kg] | Mean arterial blood pressure (Rattus norvegicus [3]) [mmHg] | Activity (Rattus norvegicus [4]) [µM/kg]
10 | inactive | Cc1cccc(NC(=O)OCC2C=CCN(C)C2)c1 (stereo not given) | >2 |  | 
11 | inactive | CN1CC=C(COC(=O)Nc2cccc(Cl)c2)CC1 | >2 |  | 
12 | inactive | CN1CCC=C(COC(=O)Nc2ccc(Cl)cc2)C1 | >2 |  | 
13 | inactive | Cc1cccc(NC(=O)OCC2=CCN(C)CC2)c1 | >2 |  | 
14 | inactive | CN1CCC=C(COC(=O)Nc2cccc(Cl)c2)C1 | >2 |  | 
15 | inactive | C[N+]1(C)CC=C(COC(=O)Nc2cccc(Cl)c2)CC1.Cc1ccc(S(=O)(=O)[O-])cc1 | >2 |  | 0.1

From ChEMBL document CHEMBL1123322, “Muscarinic ganglionic stimulants: conformationally restrained analogues related to [4-[[N-(3-chlorophenyl)carbamoyl]oxy]-2-butynyl]trimethylammonium chloride” (1986)
